ChEMBL document CHEMBL4800722, “Data for DCP probe BI 605906” (2021)

Key:
[1] = target: CDK8/Cyclin C (Homo sapiens) (UniProt P49336+P24863); conditions: Compound concentration 1.0 uM
[2] = target: 3-phosphoinositide-dependent protein kinase 1 (Homo sapiens) (UniProt O15530); conditions: Compound concentration 10.0 uM
[3] = target: Proto-oncogene tyrosine-protein kinase Src (Homo sapiens) (UniProt P12931)
[4] = target: Dual specificity testis-specific protein kinase 1 (Homo sapiens) (UniProt Q15569); conditions: Compound concentration 1.0 uM
[5] = target: Interstitial collagenase (Homo sapiens) (UniProt P03956); conditions: Compound concentration 10.0 uM
[6] = target: Serine/threonine-protein kinase ULK1 (Homo sapiens) (UniProt O75385); conditions: Compound concentration 1.0 uM
[7] = target: Mast/stem cell growth factor receptor Kit (Homo sapiens) (UniProt P10721)
Mast/stem cell growth factor receptor Kit (Homo sapiens), sequence (P10721 whole entry): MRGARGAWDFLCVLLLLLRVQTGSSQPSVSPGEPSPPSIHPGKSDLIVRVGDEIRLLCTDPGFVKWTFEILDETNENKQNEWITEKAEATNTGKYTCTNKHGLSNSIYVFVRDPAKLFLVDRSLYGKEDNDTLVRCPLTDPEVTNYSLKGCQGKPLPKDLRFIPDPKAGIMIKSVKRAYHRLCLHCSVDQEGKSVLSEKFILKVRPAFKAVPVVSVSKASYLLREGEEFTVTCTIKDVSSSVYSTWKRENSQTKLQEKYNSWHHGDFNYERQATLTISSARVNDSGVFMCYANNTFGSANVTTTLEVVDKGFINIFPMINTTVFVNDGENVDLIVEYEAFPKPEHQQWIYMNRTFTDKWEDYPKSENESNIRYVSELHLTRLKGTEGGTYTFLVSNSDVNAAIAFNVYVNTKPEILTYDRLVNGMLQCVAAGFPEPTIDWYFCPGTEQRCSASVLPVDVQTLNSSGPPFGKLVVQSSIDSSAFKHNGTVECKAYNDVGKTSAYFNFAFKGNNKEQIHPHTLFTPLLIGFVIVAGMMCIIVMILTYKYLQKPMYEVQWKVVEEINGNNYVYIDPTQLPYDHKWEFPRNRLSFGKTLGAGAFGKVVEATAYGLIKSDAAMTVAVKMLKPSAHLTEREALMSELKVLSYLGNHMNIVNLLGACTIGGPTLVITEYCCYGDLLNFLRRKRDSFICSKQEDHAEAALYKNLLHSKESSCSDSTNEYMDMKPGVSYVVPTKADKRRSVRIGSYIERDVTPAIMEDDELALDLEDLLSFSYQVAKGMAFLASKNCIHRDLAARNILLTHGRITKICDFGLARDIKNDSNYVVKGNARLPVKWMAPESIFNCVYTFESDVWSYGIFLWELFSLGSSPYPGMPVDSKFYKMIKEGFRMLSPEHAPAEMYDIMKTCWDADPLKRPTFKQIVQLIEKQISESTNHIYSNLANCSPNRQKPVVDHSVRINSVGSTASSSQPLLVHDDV

[8] = target: cAMP-dependent protein kinase catalytic subunit gamma (Homo sapiens) (UniProt P22612); experiment: PRKACG (PRKAC GAM Invitrogen Lab (UK) kinase screen (BI); conditions: Compound concentration 1.0 uM
[9] = target: Tyrosine-protein kinase Fer (Homo sapiens) (UniProt P16591); conditions: Compound concentration 1.0 uM
[10] = target: Inactive tyrosine-protein kinase PEAK1 (Homo sapiens) (UniProt Q9H792); conditions: Compound concentration 1.0 uM
[11] = target: Interleukin-1 receptor-associated kinase 4 (Homo sapiens) (UniProt Q9NWZ3)
Interleukin-1 receptor-associated kinase 4 (Homo sapiens), sequence (Q9NWZ3 whole entry): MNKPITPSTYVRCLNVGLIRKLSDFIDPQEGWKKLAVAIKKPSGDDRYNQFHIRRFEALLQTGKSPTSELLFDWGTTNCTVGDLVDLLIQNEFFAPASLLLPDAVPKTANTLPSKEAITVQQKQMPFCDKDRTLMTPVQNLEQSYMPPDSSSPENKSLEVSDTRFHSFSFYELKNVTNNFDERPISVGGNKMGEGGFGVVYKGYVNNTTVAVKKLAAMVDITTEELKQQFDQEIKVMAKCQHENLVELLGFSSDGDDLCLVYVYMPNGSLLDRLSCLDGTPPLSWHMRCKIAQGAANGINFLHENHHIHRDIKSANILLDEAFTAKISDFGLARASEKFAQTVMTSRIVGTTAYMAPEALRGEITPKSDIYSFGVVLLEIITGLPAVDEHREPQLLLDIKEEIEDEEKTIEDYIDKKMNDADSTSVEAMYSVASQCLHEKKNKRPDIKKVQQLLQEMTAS

[12] = target: Serine/threonine-protein kinase PLK2 (Homo sapiens) (UniProt Q9NYY3); conditions: Compound concentration 1.0 uM
[13] = target: Rho-associated protein kinase 2 (Homo sapiens) (UniProt O75116); experiment: ROCKII DUNDEE kinase screen (BI); conditions: Rattus norvegicus; Compound concentration 10.0 uM
[14] = target: PI3K p110 beta/p85 alpha (Homo sapiens) (UniProt P27986+P42338); experiment: PIK3CBPIK3RI Invitrogen Lab (UK) kinase screen (BI); format: protein-complex assay; conditions: Compound concentration 1.0 uM
[15] = target: RAF proto-oncogene serine/threonine-protein kinase (Homo sapiens) (UniProt P04049); experiment: RAF1 Invitrogen Lab (UK) kinase screen (BI); conditions: Compound concentration 1.0 uM
[16] = target: TGF-beta receptor type-2 (Homo sapiens) (UniProt P37173); conditions: Compound concentration 1.0 uM
[17] = target: Muscle, skeletal receptor tyrosine-protein kinase (Homo sapiens) (UniProt O15146); experiment: MUSK Invitrogen Lab (UK) kinase screen (BI); conditions: Compound concentration 1.0 uM
[18] = target: 5-hydroxytryptamine receptor 1A (Homo sapiens) (UniProt P08908); conditions: Compound concentration 10.0 uM
[19] = target: Activin receptor type-1B (Homo sapiens) (UniProt P36896)
Activin receptor type-1B (Homo sapiens), sequence (P36896 whole entry, canonical isoform): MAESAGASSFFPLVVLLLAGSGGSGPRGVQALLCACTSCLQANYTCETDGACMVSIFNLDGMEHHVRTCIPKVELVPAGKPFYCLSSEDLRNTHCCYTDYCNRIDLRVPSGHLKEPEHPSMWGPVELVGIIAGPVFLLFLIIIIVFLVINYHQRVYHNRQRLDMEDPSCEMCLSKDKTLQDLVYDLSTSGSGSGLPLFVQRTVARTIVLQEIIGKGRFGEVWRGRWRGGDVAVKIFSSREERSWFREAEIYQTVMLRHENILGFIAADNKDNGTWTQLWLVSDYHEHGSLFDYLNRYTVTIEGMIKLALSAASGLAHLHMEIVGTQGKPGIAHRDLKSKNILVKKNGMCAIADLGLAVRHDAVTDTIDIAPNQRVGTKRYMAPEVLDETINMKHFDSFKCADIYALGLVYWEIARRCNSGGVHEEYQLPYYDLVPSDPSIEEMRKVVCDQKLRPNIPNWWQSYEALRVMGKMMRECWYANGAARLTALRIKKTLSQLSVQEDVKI

[20] = target: Phosphorylase b kinase gamma catalytic chain, testis/liver isoform (Homo sapiens) (UniProt P15735)
Phosphorylase b kinase gamma catalytic chain, testis/liver isoform (Homo sapiens), sequence (P15735 whole entry, looked up, canonical isoform): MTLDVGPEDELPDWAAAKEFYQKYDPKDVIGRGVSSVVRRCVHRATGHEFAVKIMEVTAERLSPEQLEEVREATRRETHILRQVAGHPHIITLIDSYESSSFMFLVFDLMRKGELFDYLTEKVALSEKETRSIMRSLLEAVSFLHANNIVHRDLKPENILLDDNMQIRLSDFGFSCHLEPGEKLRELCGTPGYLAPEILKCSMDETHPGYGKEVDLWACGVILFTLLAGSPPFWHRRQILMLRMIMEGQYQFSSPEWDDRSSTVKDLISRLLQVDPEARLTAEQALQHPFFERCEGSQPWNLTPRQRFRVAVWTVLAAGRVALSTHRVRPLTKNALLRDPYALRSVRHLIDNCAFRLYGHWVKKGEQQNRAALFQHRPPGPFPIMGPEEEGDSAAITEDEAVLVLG

[21] = target: CDK4/Cyclin D3 (Homo sapiens) (UniProt P11802+P30281); conditions: Compound concentration 1.0 uM
[22] = target: Mitogen-activated protein kinase 8 (Homo sapiens) (UniProt P45983); experiment: JNK1A1SAPK1C DUNDEE kinase screen (BI); conditions: Compound concentration 10.0 uM
[23] = target: Serine/threonine-protein kinase MRCK alpha (Homo sapiens) (UniProt Q5VT25); conditions: Compound concentration 1.0 uM
[24] = target: Endothelin-converting enzyme 1 (Homo sapiens) (UniProt P42892); conditions: Compound concentration 10.0 uM
[25] = system: Serine/threonine-protein kinase B-raf (Homo sapiens), P15056 [V600E]; experiment: BRAF V599E Invitrogen Lab (UK) kinase screen (BI); conditions: Compound concentration 10.0 uM
[26] = target: Inhibitor of nuclear factor kappa-B kinase subunit epsilon (Homo sapiens) (UniProt Q14164)
Inhibitor of nuclear factor kappa-B kinase subunit epsilon (Homo sapiens), sequence (Q14164 whole entry): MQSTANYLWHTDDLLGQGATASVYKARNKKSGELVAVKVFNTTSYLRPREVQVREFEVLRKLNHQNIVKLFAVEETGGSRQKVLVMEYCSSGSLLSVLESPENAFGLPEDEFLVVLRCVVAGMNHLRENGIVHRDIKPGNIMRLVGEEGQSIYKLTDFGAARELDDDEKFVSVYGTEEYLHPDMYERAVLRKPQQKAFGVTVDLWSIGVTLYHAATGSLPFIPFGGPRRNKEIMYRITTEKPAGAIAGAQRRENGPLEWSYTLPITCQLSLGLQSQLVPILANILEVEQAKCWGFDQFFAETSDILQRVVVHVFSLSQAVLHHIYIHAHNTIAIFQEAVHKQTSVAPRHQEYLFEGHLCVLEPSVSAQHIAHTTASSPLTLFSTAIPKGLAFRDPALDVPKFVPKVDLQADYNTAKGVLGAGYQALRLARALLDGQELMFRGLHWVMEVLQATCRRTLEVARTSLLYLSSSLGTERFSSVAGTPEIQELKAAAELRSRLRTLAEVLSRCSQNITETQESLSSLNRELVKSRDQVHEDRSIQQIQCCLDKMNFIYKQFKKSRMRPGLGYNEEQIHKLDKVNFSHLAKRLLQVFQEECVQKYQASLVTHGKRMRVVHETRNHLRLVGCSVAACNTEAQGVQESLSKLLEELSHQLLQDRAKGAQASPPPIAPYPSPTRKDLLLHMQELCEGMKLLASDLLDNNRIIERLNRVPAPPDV

[27] = target: Phosphatidylinositol 3-kinase catalytic subunit type 3 (Homo sapiens) (UniProt Q8NEB9); conditions: Compound concentration 1.0 uM
[28] = target: Calcitonin-gene-related peptide receptor, CALCRL/RAMP1 (Homo sapiens) (UniProt O60894+Q16602)
[29] = target: AMP-activated protein kinase, AMPK (Rattus norvegicus) (UniProt P54645+Q09137+P80386+P80385+Q9QZH4+Q6V7V4+D4A7E4); experiment: AMPK DUNDEE kinase screen (BI); format: protein-complex assay; conditions: Compound concentration 10.0 uM
[30] = target: Serine/threonine-protein kinase pim-2 (Homo sapiens) (UniProt Q9P1W9); conditions: Compound concentration 10.0 uM
[31] = system: Receptor-type tyrosine-protein kinase FLT3 (Homo sapiens), P36888 [UNDEFINED MUTATION]; conditions: Compound concentration 1.0 uM
[32] = target: Insulin-like growth factor 1 receptor (Homo sapiens) (UniProt P08069)
Insulin-like growth factor 1 receptor (Homo sapiens), sequence (P08069 31-736 limits assumed): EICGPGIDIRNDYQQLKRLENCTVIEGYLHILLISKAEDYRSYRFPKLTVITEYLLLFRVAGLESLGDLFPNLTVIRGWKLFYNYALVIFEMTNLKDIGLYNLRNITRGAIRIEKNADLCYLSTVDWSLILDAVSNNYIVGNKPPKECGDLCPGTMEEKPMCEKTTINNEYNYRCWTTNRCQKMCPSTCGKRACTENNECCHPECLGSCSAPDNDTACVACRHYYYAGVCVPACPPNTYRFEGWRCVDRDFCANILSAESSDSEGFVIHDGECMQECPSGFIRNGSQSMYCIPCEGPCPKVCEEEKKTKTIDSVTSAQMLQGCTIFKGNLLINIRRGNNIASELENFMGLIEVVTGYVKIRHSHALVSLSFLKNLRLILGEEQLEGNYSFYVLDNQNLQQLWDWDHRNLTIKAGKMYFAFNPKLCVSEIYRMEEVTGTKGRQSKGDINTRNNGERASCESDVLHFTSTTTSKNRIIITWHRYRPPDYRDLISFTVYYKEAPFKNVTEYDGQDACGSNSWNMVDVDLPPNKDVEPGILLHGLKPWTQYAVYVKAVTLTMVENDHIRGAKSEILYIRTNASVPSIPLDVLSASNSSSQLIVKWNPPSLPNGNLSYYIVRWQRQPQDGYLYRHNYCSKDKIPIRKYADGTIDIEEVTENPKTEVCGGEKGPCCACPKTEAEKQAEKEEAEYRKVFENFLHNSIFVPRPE
Insulin-like growth factor 1 receptor (Homo sapiens), sequence (P08069 741-1367 limits assumed): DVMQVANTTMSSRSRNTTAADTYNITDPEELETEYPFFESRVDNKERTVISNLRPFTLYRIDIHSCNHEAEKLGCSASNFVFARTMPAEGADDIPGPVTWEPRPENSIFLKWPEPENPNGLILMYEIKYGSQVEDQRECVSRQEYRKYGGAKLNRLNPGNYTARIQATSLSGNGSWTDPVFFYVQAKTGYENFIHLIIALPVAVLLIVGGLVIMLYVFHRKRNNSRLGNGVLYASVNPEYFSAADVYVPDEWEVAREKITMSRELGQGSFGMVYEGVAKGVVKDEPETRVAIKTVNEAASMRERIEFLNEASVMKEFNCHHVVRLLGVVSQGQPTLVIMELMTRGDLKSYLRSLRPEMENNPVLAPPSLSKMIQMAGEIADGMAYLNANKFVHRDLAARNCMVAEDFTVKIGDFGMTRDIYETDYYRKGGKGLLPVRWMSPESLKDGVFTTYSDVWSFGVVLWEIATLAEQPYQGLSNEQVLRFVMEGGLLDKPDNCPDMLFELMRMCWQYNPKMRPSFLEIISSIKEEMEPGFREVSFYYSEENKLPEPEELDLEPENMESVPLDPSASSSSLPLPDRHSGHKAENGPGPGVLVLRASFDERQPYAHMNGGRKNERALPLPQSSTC

[33] = target: Calcium/calmodulin-dependent protein kinase type IV (Homo sapiens) (UniProt Q16566); experiment: CAMK4 Invitrogen Lab (UK) kinase screen (BI); conditions: Compound concentration 1.0 uM
[34] = target: Cyclin-dependent kinase 9 (Homo sapiens) (UniProt P50750); experiment: CDK9CYCLIN Invitrogen Lab (UK) kinase screen (BI); conditions: Compound concentration 1.0 uM
[35] = target: Histamine H4 receptor (Homo sapiens) (UniProt Q9H3N8); conditions: Compound concentration 10.0 uM
[36] = target: Mitogen-activated protein kinase 7 (Homo sapiens) (UniProt Q13164); conditions: Compound concentration 1.0 uM
[37] = target: Serine/threonine-protein kinase N1 (Homo sapiens) (UniProt Q16512); conditions: Compound concentration 1.0 uM
[38] = target: Casein kinase II subunit alpha' (Homo sapiens) (UniProt P19784); conditions: Compound concentration 1.0 uM
[39] = target: Serine/threonine-protein kinase PLK4 (Homo sapiens) (UniProt O00444); conditions: Compound concentration 1.0 uM
[40] = target: Type-1 angiotensin II receptor (Homo sapiens) (UniProt P30556); experiment: AT1 Eurofins SafetyScreen44 (BI)
Type-1 angiotensin II receptor (Homo sapiens), sequence (P30556 whole entry): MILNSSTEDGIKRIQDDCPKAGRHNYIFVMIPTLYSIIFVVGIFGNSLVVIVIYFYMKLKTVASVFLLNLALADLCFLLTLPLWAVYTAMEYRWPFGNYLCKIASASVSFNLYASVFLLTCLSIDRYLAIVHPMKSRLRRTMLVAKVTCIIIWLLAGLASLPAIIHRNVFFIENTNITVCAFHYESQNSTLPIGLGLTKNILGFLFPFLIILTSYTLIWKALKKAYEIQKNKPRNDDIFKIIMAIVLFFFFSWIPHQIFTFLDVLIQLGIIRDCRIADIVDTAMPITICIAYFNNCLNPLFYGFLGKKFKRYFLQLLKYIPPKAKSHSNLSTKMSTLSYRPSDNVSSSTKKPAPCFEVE

[41] = Compound concentration 100.0 uM

CCC(F)(F)c1cc(N2CCC(S(C)(=O)=O)CC2)nc2sc(C(N)=O)c(N)c12 [BI-605906]
active: residual activity [13] 40.1% | residual activity [25] 34%
inactive: residual activity [1] 82% | residual activity [2] 89.1% | residual activity ([3]; Compound concentration 1.0 uM) 79% | residual activity ([3]; Compound concentration 10.0 uM) 92% | residual activity [4] 92% | residual activity [5] 94% | residual activity [6] 94% | residual activity ([7]; Compound concentration 1.0 uM) 89% | residual activity ([7]; Compound concentration 10.0 uM) 83% | residual activity [8] 103% | residual activity [9] 95% | residual activity [10] 94% | residual activity ([11]; Compound concentration 1.0 uM) 100% | residual activity ([11]; Compound concentration 10.0 uM) 90% | residual activity [12] 96% | residual activity [14] 124% | residual activity [15] 78% | residual activity [16] 87% | residual activity [17] 84% | inhibition [18] 14.4% | residual activity ([19]; Compound concentration 1.0 uM) 96% | residual activity ([19]; Compound concentration 10.0 uM) 105% | residual activity ([20]; Compound concentration 1.0 uM) 99% | residual activity ([20]; Compound concentration 10.0 uM) 97% | residual activity [21] 97% | residual activity [22] 93.8% | residual activity [23] 95% | residual activity [24] 82% | residual activity ([26]; Compound concentration 1.0 uM) 98% | residual activity ([26]; Compound concentration 10.0 uM) 98% | residual activity [27] 91% | residual activity ([28]; Compound concentration 10.0 uM) 99% | residual activity [28, 41] 96% | residual activity [29] 79.2% | residual activity [30] 101% | residual activity [31] 101% | residual activity ([32]; Compound concentration 1.0 uM) 95% | residual activity ([32]; Compound concentration 10.0 uM) 99% | residual activity [33] 103% | residual activity [34] 86% | inhibition [35] -1.66% | residual activity [36] 98% | residual activity [37] 87% | residual activity [38] 87% | residual activity [39] 89% | residual activity ([40]; Compound concentration 10.0 uM) 104% | residual activity [40, 41] 72%
